Where two headings read alike, the source gives them in different places.
Key:
[1] = target: PI3Kα (Homo sapiens, UniProt P42336); assay: PI3K-alpha fluorescence polarization assay; type: biochemical; conditions: 20 μM PIP2, 25 μM ATP; read-out: PI3Kα Median IC50
[2] = target: PI3Kγ (Homo sapiens, UniProt P48736); assay: PI3K-gamma fluorescence polarization assay; type: biochemical; conditions: 20 μM PIP2, 25 μM ATP; read-out: PI3Kγ Median IC50
Outline: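 Enzyme preincubated with compound in 20 mM HEPES pH 7.5, 2 mM MgCl2, 0.05% CHAPS, 0.01% βME; reaction started with substrate giving 20 μM diC8 PIP2 and 25 μM ATP final, run 30-60 min at room temperature. Stopped with TAMRA-labelled PIP3 detector probe plus GST-GRP; PIP3 formation read by fluorescence polarization after 90-110 min.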

[3] = target: T1, mTOR Kinase (FLAG-TOR) (Homo sapiens, UniProt P42345); assay: mTOR kinase assay, purified enzyme, DELFIA format; type: biochemical; conditions: 100 μM ATP, 1.25 μM His6-S6K; read-out: mTOR Kinase Median IC50
T1 construct: FLAG

[4] = tested on: human tumor xenograft models; conditions: cited from earlier work
[5] = tested on: acute lymphoblastic leukemia; conditions: in vivo; cited from earlier work
[6] = target: mTOR (Homo sapiens, UniProt P42345); conditions: read-out: mTOR IC50; mTOR complexes / mTOR enzymes; cited from earlier work

Sequence of PI3Kα (P42336 whole entry, species assumed): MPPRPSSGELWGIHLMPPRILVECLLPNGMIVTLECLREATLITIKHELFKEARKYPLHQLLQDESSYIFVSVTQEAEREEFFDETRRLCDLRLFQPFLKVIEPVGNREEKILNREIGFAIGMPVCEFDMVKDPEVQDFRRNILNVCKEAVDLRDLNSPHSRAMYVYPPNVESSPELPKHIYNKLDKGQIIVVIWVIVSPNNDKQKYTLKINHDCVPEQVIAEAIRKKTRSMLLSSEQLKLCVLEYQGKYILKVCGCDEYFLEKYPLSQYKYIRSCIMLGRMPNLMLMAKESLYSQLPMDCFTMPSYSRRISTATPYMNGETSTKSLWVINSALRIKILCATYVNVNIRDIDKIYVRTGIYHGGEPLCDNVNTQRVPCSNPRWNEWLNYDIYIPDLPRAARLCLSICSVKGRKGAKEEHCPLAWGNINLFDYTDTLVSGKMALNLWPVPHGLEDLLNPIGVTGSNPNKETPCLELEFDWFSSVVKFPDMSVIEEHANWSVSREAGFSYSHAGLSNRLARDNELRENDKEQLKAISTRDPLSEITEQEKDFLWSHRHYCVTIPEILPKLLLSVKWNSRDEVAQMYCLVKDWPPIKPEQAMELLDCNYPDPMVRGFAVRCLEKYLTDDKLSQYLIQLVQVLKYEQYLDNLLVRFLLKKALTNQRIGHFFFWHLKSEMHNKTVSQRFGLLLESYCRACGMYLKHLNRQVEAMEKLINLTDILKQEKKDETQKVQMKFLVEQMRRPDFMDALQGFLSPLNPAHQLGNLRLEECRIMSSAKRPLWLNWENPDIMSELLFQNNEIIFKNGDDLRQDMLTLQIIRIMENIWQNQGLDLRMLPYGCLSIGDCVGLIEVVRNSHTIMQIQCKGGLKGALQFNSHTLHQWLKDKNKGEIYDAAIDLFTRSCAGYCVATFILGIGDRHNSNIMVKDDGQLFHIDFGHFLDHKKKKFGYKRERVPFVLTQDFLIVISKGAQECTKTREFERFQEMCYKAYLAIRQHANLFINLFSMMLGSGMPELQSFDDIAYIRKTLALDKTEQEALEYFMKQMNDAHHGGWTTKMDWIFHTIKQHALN
Sequence of PI3Kα (P27986 whole entry partner, species assumed): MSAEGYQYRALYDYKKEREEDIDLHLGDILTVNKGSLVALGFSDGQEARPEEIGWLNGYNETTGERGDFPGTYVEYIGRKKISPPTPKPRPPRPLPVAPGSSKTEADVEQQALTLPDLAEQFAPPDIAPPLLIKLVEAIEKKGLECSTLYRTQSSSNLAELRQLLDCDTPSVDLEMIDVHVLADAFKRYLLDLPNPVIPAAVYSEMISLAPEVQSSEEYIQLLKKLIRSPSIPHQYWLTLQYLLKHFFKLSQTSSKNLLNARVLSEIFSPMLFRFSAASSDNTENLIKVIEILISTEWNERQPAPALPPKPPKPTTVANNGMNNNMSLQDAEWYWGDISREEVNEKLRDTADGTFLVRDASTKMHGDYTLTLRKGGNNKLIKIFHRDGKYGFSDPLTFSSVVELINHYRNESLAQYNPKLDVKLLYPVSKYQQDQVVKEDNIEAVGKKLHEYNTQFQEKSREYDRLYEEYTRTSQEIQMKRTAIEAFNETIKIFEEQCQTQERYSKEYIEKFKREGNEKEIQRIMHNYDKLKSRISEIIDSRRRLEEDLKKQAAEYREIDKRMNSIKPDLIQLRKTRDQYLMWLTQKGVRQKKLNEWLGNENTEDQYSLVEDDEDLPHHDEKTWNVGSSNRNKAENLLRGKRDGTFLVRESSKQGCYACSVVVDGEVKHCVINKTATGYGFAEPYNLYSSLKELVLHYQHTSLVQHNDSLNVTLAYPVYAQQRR
Sequence of PI3Kγ (P48736 whole entry, species assumed): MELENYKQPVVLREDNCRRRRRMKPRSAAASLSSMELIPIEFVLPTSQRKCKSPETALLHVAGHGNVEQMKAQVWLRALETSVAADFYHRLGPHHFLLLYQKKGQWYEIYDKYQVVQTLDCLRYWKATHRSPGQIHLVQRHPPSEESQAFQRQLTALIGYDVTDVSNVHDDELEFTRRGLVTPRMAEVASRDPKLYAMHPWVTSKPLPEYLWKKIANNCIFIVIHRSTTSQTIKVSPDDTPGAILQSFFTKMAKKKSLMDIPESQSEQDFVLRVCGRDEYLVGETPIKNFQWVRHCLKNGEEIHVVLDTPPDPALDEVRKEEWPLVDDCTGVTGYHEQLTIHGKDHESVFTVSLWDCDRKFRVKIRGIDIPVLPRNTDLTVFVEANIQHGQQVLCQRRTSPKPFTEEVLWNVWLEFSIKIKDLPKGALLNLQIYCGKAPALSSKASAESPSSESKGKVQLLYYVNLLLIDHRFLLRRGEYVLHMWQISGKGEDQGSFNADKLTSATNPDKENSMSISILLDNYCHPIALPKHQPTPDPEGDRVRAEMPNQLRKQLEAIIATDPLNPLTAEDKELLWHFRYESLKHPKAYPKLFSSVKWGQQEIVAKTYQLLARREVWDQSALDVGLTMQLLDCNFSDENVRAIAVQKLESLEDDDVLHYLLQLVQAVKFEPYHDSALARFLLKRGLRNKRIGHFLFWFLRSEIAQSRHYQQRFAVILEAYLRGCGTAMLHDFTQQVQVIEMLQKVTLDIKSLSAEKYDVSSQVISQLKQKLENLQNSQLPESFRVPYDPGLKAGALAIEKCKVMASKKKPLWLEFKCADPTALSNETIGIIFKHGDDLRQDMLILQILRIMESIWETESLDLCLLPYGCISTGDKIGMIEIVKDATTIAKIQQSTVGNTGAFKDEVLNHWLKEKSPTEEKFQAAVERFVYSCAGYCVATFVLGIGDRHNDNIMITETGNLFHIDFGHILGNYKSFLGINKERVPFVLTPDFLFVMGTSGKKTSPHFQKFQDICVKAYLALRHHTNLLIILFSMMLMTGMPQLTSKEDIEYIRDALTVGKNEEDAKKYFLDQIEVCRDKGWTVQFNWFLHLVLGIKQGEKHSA

## CCn1ccc2c(N3CCOCC3)nc(-c3ccc(NC(=O)NC)cc3)nc21 [Compound 96, 1-[4-(7-ethyl-4-morpholin-4-yl-7H-pyrrolo[2,3-d]pyrimidin-2-yl)phenyl]-3-methylurea]
[1]
  IC50: 140 nM
[2]
  IC50: 1540 nM
[3]
  IC50: 4.9 nM

## CCn1cc(CN(C)C)c2c(N3CCOCC3)nc(-c3ccc(NC(=O)NC)cc3)nc21 [Compound 97, 1-(4-{5-[(dimethylamino)methyl]-7-ethyl-4-morpholin-4-yl-7H-pyrrolo[2,3-d]pyrimidin-2-yl}phenyl)-3-methylurea]
[1]
  IC50: 1890 nM
[2]
  IC50: 12000 nM
[3]
  IC50: 47 nM

## Cn1c(=O)n(-c2ccc(C(C)(C)C#N)cc2)c2c3cc(-c4cnc5ccccc5c4)ccc3ncc21 [NVP-BEZ-235, 2-methyl-2-(4-(3-methyl-2-oxo-8-(quinolin-3-yl)-2,3-dihydro-1H-imidazo[4,5-c]quinolin-1-yl)phenyl)propanenitrile]
[4]; prostrate (PC-3) and glioblastoma (U-87)
  activity in human tumor xenograft models: demonstrated activity

## Oc1cccc(-c2nc(N3CCOCC3)c3oc4ncccc4c3n2)c1 [PI103, 3-(4-(4-morpholinyl)pyrido[3′,2′:4,5]furo[3,2-d]pyrimidin-2-yl)phenol]
[4]; I.P. dosing in mice, U87MG, PC3, MDA-MB-468, MDA-MB-435, HCT 116, SKOV3, IGROV-1
  activity in human tumor xenograft models: demonstrated activity

## CO[C@H]1C[C@@H]2CC[C@@H](C)[C@@](O)(O2)C(=O)C(=O)N2CCCC[C@H]2C(=O)O[C@H]([C@H](C)C[C@@H]2CC[C@@H](OC(=O)C(C)(CO)CO)[C@H](OC)C2)CC(=O)[C@H](C)/C=C(\C)[C@@H](O)[C@@H](OC)C(=O)[C@H](C)C[C@H](C)/C=C/C=C/C=C/1C [Torisel]
[5]
  activity in NOS/SCID xenograft mouse model of acute lymphoblastic leukemia: active

## FC(F)c1nc2ccccc2n1-c1nc(N2CCOCC2)nc(N2CCOCC2)n1 [ZSTK474, 2-(2-difluoromethylbenzoimidazol-1-yl)-4,6-dimorpholino-1,3,5-triazine]
[4]; chronic oral administration, 400 mg/kg, A549, PC-3, WiDr
  tumor growth in mouse human xenograft cancer models: completely inhibited growth
[6]
  IC50: > 10000 nM

Reference: patent publication US20100003250A1, “(2-ARYL-7H-PYRROLO[2,3-D]PYRIMIDIN-4-YL)MORPHOLINE COMPOUNDS, THEIR USE AS MTOR KINASE AND PI3 KINASE INHIBITORS, AND THEIR SYNTHESES” (Wyeth, priority 2008, published 2010)
